6 compounds from patent US8039496B2, “Therapeutic compounds” (Allergan, Inc., priority 2007, dated 2011) can be followed below.

For series [1], the target named is T1, hEP3 (Homo sapiens, UniProt P43115).
T1 sequence (P43115 1-390): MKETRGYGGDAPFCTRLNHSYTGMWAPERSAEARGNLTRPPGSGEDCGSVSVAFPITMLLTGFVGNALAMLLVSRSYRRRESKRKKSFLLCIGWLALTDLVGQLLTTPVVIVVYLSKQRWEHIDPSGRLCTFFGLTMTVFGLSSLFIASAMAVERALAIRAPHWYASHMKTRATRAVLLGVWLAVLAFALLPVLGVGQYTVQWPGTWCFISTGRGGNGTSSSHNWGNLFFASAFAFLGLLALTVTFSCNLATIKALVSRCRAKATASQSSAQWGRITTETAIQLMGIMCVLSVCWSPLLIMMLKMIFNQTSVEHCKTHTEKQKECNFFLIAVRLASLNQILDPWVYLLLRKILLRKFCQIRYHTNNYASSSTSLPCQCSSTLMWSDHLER
As to the kind of experiment: Other receptors: hEP3 / hEP3A. It counts as cell-based. The text has this:
(§1) U.S. patent application Ser. No. 11/553,143, filed on Oct. 26, 2006, describes the methods used to obtain the in vitro data in the table below.

In series [2] the test system is normotensive dogs. As to the kind of experiment: Intraocular pressure in normotensive dogs. The series is classed as in vivo. Conditions: Canis lupus familiaris, topical, 120 h, once daily for 5 days, read-out: maximum IOP decrease from baseline (percent). As to the method: (§2) U.S. Pat. No. 7,091,231 describes the methods used for these in vivo tests. 5-{3-[1R,2S,3R,5R)-5-Chloro-2-(3,5-dichloro-phenoxymethyl)-3-hydroxy-cyclopentyl]-propyl}-thiophene-2-carboxylic acid was tested at multiple concentrations in normotensive dogs, dosing once daily for 5 days. At 0.1%, the maximum intraocular pressure (IOP) decrease from baseline was 7.5 mmHg (48%) at 30 h; the maximum ocular surface hyperemia (OSH) score was 2.75 at 26 h. At 0.01%, the maximum IOP decrease from baseline was 7.5 mmHg (43%) at 76 h; the maximum OSH score was 2.0 at 26 h. At 0.005%, the maximum IOP decrease from baseline was 6.6 mmHg (35%) at 78 h; the maximum OSH score was 1.75 at 74 h. This compound was also tested in laser-induced hypertensive monkeys, using one single day dose. At 0.01%, the maximum IOP decrease from baseline was 20.2 mmHg (53%) at 24 h.

In series [3] the test system is laser-induced hypertensive monkeys. Kind of series: Intraocular pressure in laser-induced hypertensive monkeys. It counts as in vivo. Conditions: one single day dose. As to the method:
as §2

Series [4] relates to normotensive dogs. As to the kind of experiment: Ocular surface hyperemia in normotensive dogs. The series is classed as in vivo. Further details: scale not given here. Conditions: once daily for 5 days. As to the method: as §2
Series [5] addresses T2, hEP2 (Homo sapiens, UniProt P43116). As to the kind of experiment: hEP2 binding (Ki). Conditions: the 3rd table; read-out: EP2 data Ki.
Text: as §1

Series [6] has as its target T3, hEP4 (Homo sapiens, UniProt P35408). Kind of series: hEP4 binding (Ki). Conditions: the 3rd table; read-out: EP4 data KI.
Text: as §1

For series [7], the target named is T2, hEP2. Kind of series: hEP2 flipr functional assay. The series is classed as cell-based. Conditions: the 3rd table; read-out: EP2 data flipr EC50.
Text: as §1

For series [8], the target named is T3, hEP4. As to the kind of experiment: hEP4 flipr functional assay. The series is classed as cell-based. Conditions: the 3rd table; read-out: EP4 data flipr EC50.
Text: as §1

For series [9], the target named is T2, hEP2. Kind of series: hEP2 cAMP functional assay. It counts as cell-based. Conditions: the 3rd table; read-out: EP2 data cAMP EC50.
Text: as §1

Read-outs that look alike come from different tables or passages of the source.

T2 sequence (P43116 whole entry): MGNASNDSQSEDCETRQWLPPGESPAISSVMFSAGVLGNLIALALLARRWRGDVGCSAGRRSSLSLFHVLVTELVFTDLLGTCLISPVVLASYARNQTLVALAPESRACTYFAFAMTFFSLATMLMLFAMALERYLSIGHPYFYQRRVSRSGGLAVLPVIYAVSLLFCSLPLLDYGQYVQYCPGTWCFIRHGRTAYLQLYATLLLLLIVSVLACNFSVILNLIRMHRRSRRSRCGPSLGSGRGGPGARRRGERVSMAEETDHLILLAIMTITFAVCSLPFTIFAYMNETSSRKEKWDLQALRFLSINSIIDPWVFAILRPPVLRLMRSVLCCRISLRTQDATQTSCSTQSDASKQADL
T3 sequence (P35408 whole entry): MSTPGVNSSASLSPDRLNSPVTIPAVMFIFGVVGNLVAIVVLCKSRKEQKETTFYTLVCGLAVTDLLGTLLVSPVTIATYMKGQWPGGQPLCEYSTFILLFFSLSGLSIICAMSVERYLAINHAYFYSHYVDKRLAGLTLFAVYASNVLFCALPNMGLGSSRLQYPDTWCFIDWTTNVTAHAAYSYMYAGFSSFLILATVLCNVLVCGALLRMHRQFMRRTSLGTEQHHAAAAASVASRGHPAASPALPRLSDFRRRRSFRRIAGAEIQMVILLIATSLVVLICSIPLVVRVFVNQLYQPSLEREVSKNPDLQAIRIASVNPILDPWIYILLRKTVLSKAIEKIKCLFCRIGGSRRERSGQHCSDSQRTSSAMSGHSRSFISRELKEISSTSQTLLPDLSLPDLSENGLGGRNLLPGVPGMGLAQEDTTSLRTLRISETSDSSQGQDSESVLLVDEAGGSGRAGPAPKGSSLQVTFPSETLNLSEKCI

As to `O=C(O)CCC/C=C\C[C@@H]1[C@@H](COc2cc(Cl)cc(Cl)c2)[C@H](O)C[C@H]1Cl` [drawing 43, (Z)-7-[(1R,2S,3R,5R)-5-Chloro-2-(3,5-dichloro-phenoxymethyl)-3-hydroxy-cyclopentyl]-hept-5-enoic acid], the EC50 in [1] (the 2nd table, read-out: Other Receptors hEP3) turned out to be 1260 nM.
With `CC(C)OC(=O)CCC/C=C\C[C@@H]1[C@@H](COc2cc(Cl)cc(CO)c2)[C@H](O)C[C@H]1Cl` [Example 12, (Z)-Isopropyl 7-((1R,2S,3R,5R)-5-chloro-2-((3-chloro-5-(hydroxymethyl)phenoxy)methyl)-3-hydroxycyclopentyl)hept-5-enoate], the inhibition in vivo at 0.1 % in [2] amounted to 33%. Also, in [3] (0.1%), the “maximum IOP decrease from baseline” value is reported as 7.4 mmHg and the “maximum IOP decrease from baseline (percent)” value is given as 21%. Besides, in series [4] (0.1%), the “maximum ocular surface hyperemia (OSH) score” value is 0.8.
The matching figures for `O=C(O)CCC/C=C\C[C@@H]1[C@@H](COc2cc(Cl)cc(CO)c2)[C@H](O)C[C@H]1Cl` [(Z)-7-[(1R,2S,3R,5R)-5-Chloro-2-(3-chloro-5-hydroxymethyl-phenoxymethyl)-3-hydroxy-cyclopentyl]-hept-5-enoic acid]: 13.5%, 8 mmHg, 21% and 0.9.
A word on the Ki: it is a measure of affinity in units of concentration, obtained from inhibition or displacement. As to `O=C(O)c1ccc(CCC[C@@H]2[C@@H](COc3cc(F)cc(C(F)(F)F)c3)[C@H](O)C[C@H]2Cl)s1` [5-(3-((1R,2S,3R,5R)-5-chloro-2-((3-fluoro-5-(trifluoromethyl)phenoxy)methyl)-3-hydroxycyclopentyl)propyl)thiophene-2-carboxylic acid], the inhibition constant (Ki) is 2.4 nM in series [5] and 354 nM in series [6]. Moreover, the EC50 is 1150 nM in series [7]; 12300 nM in series [8]; 0.2 nM in series [9]; 6820 nM in series [1] (the 3rd table, read-out: Other Receptors (ED50 in nM) hEP3A).
Turning to `CC(=O)OCc1cc(Cl)cc(OC[C@@H]2[C@@H](C/C=C\CCCC(=O)OC(C)C)[C@H](Cl)C[C@H]2O)c1` [Example 13, (Z)-Isopropyl 7-((1R,2S,3R,5R)-2-((3-(acetoxymethyl)-5-chlorophenoxy)methyl)-5-chloro-3-hydroxycyclopentyl)hept-5-enoate], the inhibition in vivo at 0.1 % in [2] came out at 20%. In series [3] (0.1%), the “maximum IOP decrease from baseline” value turned out to be 8.2 mmHg and the “maximum IOP decrease from baseline (percent)” value worked out at 21%. Moreover, the “maximum ocular surface hyperemia (OSH) score” value in series [4] (0.1%) worked out at 0.7.
In the case of `O=C(O)c1ccc(CCC[C@@H]2[C@@H](COc3cc(Cl)cc(Cl)c3)[C@H](O)C[C@H]2Cl)s1` [Example 4, 5-{3-[(1R,2S,3R,5R)-5-Chloro-2-(3,5-dichloro-phenoxymethyl)-3-hydroxy-cyclopentyl]-propyl}-thiophene-2-carboxylic acid], the inhibition in vivo at 0.005 % in series [2] (0.005%) amounted to 35%. The inhibition in vivo at 0.01 % in [2] (0.01%) turned out to be 43%. Further, the inhibition in vivo at 0.1 % in [2] was found to be 48%. For the same compound, the “maximum IOP decrease from baseline” value in series [3] (0.01%) was determined as 20.2 mmHg. Further, in series [3] (0.01%), the “maximum IOP decrease from baseline (percent)” value stood at 53%. The “maximum ocular surface hyperemia (OSH) score” value in series [4] (0.005%) turned out to be 1.75; in series [4] (0.01%) it was 2.0; in series [4] (0.1%), 2.75.
